Source: PubChem BioAssay (NCI)
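GI50 marks 50% less growth. TGI denotes the concentration required for complete inhibition of growth.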

Columns and labels:
Experiment in all cases: NCI-60 cell line screen, 384-well format
[1] = system: HOP-62 NSCLC
[2] = system: OVCAR-4 ovarian
[3] = system: HS 578T breast
[4] = system: SN12C renal
[5] = system: MOLT-4 leukemia
[6] = system: SF-539 CNS
[7] = system: ACHN renal
[8] = system: EKVX NSCLC
[9] = system: NCI/ADR-RES ovarian
[10] = system: NCI-H460 NSCLC
[11] = system: RXF 393 renal
[12] = system: UACC-257 melanoma
[13] = system: SNB-19 CNS

Question: What does the source list for `CC1(N)CCN(c2cccnc2NC(=O)c2nc(-c3ncccc3C(F)(F)F)cnc2N)CC1`?
Answer: GI50 [1]: 28.8 µM; TGI [1]: > 77.6 µM; GI50 [2]: > 69.4 µM; TGI [2]: > 100 µM; GI50 [3]: 15.9 µM; TGI [3]: 33.2 µM; GI50 [4]: 21 µM; TGI [4]: 56.8 µM; GI50 [5]: 12.8 µM; TGI [5]: 25.6 µM; GI50 [6]: 24 µM; TGI [6]: > 51.2 µM; GI50 [7]: 22.7 µM; TGI [7]: > 94.7 µM; GI50 [8]: 7.15 µM; TGI [8]: 38.9 µM; GI50 [9]: > 100 µM; TGI [9]: > 100 µM; GI50 [10]: 17.6 µM; TGI [10]: 32.4 µM; GI50 [11]: 12.5 µM; TGI [11]: 25.5 µM; GI50 [12]: 7.77 µM; TGI [12]: 20.8 µM; GI50 [13]: 27.8 µM; TGI [13]: > 76.7 µM
